The numbers were not newly measured in patent US5998440A, “Azetidine, pyrrolidine and piperidine derivatives” (Merck Sharpe & Dohme Ltd., priority 1995, dated 1999), which cites them from elsewhere.

For this data set the following is noted: humans, therapeutic doses.

Take `CNS(=O)(=O)Cc1ccc2[nH]cc(CCN(C)C)c2c1` [sumatriptan]: the adverse cardiovascular events result is “certain adverse cardiovascular events”.
